Reference: patent US10023538B2, “Compounds, compositions and associated methods comprising 3-aryl quinolines” (Oregon Health & Science University, priority 2012, dated 2018)
Read-outs that look alike come from different tables or passages of the source.

Legend:
P. falciparum strain 7G8 = assay: Antiplasmodial fluorescence-based SyBr Green assay, strain 7G8; type: cell-based, Plasmodium falciparum
Description: (§1) The IC50 values listed in Table 1 were determined by the fluorescence-based SyBr Green assay described in Smilkstein (Smilkstein M, Antimicrob Agents Chemother 48, 1803-1806 (2004)). Values are the mean of at least two experiments, each performed in triplicate. […] NT=not tested.

P. falciparum strain D6 = assay: Antiplasmodial fluorescence-based SyBr Green assay, strain D6; type: cell-based, Plasmodium falciparum
Description: as §1

P. falciparum strain Dd2 = assay: Antiplasmodial fluorescence-based SyBr Green assay, strain Dd2; type: cell-based, Plasmodium falciparum
Description: as §1

[1] = tested on: P. falciparum strain Tm90.C2B; assay: Antiplasmodial activity against strain Tm90.C2B; type: cell-based, Plasmodium falciparum
Description: as §1
Furthermore, Compound 1 was evaluated against the strain Tm90.C2B.

P. yoelii = assay: In vivo efficacy, P. yoelii mouse model of malaria (Strain K model); design: species or system female CF1 mice; conditions: P. yoelii / CF1 mice
Description: The efficacy of Compound 1 in vivo using a P. yoelii mouse model of malaria (Strain K model) was studied. Female CF1 mice were inoculated intravenously with 1-2 million infected red blood cells obtained from infected donor animals. Infected cells were collected then randomly sorted into groups of four mice on Day 0. Drug administration began on Day 1. […] Both drugs were administered daily by gavage as the dihydrochloride salt dissolved in 100 μl of water for Days, 1, 2, 3, and 4. Blood films were prepared on Day 5 (the day after the final drug dose), fixed in methanol, stained with Giemsa, and viewed microscopically to assess parasitemia.

[2] = Heme binding affinity in solution (UV/visible titration, NMR); conditions: 20 mM phosphate buffer, pH 7.0, 25° C.; titration and NMR
Description: The binding affinity of Compound 1 and heme in solution was assessed as described by Kelly (Kelly, J X et al, Antimicrob Agents Chemother 46, 144-150 (2002); Kelly J X et al, Mol Biochem Parasitol 123, 47-54 (2002)). This assay correlates heme binding affinity and the mode of binding (i.e., binding to heme monomer or dimer) to intrinsic antimalarial activity in vitro and in vivo.
Association constants for heme-drug complexes were determined with all titrations conducted under aqueous conditions in 20 mM phosphate buffer, at pH 7.0 and 25° C. Titrations with compounds were performed by successive addition of aliquots of a 1 mM stock solution to a 10 μM heme solution at constant pH. All UV/visible spectral data was analyzed digitally with absorbance readings and concentrations corrected for dilution effects. The resulting titration curves were analyzed with Hill plot (Cantor and Schimmel, Biophysical Chemistry, W H Freeman and Co, New York, 1980) and non-linear curve fitting methods (Connors, Chemical Kinetics, VCH Publishers, New York, 1990). Titration curves were fit to the most accurate binding isotherm and stoichiometry.
Heme:drug interaction was assessed by NMR. NMR investigations involving Compound 1 binding to heme were performed as described in Kelly (Kelly, et al, supra).

P. falciparum strains = assay: Antiplasmodial IC50 across P. falciparum strains (average / range); type: cell-based, Plasmodium falciparum
Description: as §1

hERG potassium channel = hERG potassium channel (Homo sapiens, UniProt Q12809); assay: hERG channel inhibition, QPatch HT automatic parallel patch clamp; type: cell-based; conditions: hERG current expressed in mammalian cells, room temperature, tested at 1, 4, 12 μM in duplicate
[3] = Cytotoxicity vs. murine splenic lymphocytes; type: cell-based; conditions: mouse
[4] = Plasmodium falciparum, P. falciparum 7G8, multidrug resistant, mean of at least two experiments in triplicate, read-out: IC50 Values (nM) Strain 7G8
[5] = Plasmodium falciparum, D6; read-out: IC50 Values (nM) Strain D6
[6] = Plasmodium falciparum, P. falciparum Dd2, multidrug resistant, mean of at least two experiments in triplicate, read-out: IC50 Values (nM) Strain Dd2
[7] = Plasmodium falciparum, P. falciparum Tm90.C2B, multidrug and atovaquone resistant, unit inferred, read-out: IC50 value against strain Tm90.C2B
[8] = Plasmodium falciparum, 7G8, read-out: IC50 Values (nM) Strain 7G8
[9] = Plasmodium falciparum, D6, read-out: IC50 Values (nM) Strain D6
[10] = Plasmodium falciparum, DD2, read-out: IC50 Values (nM) Strain Dd2
[11] = P. falciparum 7G8, multidrug resistant, mean of at least two experiments in triplicate, read-out: IC50 Values (nM) Strain 7G8
[12] = P. falciparum D6, chloroquine sensitive; mean of at least two experiments in triplicate; read-out: IC50 Values (nM) Strain D6
[13] = P. falciparum Dd2, multidrug resistant, mean of at least two experiments in triplicate, read-out: IC50 Values (nM) Strain Dd2

Chain of hERG potassium channel (Q12809 whole entry): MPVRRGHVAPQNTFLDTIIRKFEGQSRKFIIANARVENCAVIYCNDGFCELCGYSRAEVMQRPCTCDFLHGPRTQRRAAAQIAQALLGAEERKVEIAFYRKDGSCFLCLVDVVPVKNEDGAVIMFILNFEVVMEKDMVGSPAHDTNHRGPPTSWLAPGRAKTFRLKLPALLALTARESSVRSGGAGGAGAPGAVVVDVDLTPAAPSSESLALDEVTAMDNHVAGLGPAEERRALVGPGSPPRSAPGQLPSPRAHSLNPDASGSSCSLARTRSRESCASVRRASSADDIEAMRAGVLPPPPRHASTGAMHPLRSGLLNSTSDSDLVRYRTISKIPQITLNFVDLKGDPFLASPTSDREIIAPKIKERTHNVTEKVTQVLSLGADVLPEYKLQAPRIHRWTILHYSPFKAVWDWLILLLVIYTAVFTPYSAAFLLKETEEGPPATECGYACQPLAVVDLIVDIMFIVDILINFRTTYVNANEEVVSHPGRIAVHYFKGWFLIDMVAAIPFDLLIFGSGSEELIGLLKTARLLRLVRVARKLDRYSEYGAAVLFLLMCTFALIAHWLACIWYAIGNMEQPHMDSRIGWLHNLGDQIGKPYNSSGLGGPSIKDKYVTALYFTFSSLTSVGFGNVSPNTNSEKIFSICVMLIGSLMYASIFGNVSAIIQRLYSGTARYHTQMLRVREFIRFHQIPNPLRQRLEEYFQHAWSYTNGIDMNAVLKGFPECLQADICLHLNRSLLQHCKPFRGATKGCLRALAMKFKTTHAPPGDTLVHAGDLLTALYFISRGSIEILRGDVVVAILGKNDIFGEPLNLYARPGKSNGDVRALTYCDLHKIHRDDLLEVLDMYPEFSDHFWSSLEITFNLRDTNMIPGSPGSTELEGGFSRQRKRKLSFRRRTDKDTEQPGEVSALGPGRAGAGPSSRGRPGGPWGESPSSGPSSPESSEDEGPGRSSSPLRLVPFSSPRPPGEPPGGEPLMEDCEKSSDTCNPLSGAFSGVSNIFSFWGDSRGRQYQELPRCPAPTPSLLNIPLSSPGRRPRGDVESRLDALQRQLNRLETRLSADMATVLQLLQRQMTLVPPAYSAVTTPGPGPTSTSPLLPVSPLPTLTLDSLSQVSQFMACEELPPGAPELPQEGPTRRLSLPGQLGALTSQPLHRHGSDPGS

Row | Structure (SMILES) | IC50 (P. falciparum strain 7G8; [4]) [nM] | IC50 (P. falciparum strain D6; [5]) [nM] | IC50 (P. falciparum strain Dd2; [6]) [nM] | also measured
1 | O=C1C(O)=C([C@H]2CC[C@H](c3ccc(Cl)cc3)CC2)C(=O)c2ccccc21 [Atovaquone, reference compound] | 0.1 | 0.1 | 0.1 | IC50 [1, 7]: 7700 nM
2 | CCN(CC)CCCC(C)Nc1ccnc2cc(Cl)ccc12 (stereo not shown) [Chloroquine, reference compound] | – | – | – | IC50 (P. falciparum strain 7G8; [8]): 78 nM; IC50 (P. falciparum strain D6; [9]): 9.2 nM; IC50 (P. falciparum strain Dd2; [10]): 120 nM; Cure of animals (P. yoelii; at dosages as high as 64 mg/kg/day): did not cure any of the animals; IC50 ([1]; Plasmodium falciparum, TM90, read-out: IC50 value against strain Tm90.C2B): 106 nM
3 | CC(C)(C)NCCCNc1c(-c2ccccc2)cnc2cc(Cl)ccc12 [Compound 3] | 6.4 | 8.7 | 17 | –
4 | CC(C)(C)NCCCNc1c(-c2ccc(C(F)(F)F)nc2)cnc2cc(Cl)ccc12 [Compound 5] | 132 | 55.2 | 89 | –
5 | CC(C)(C)NCCCNc1c(-c2ccc(Oc3ccc(OC(F)(F)F)cc3)cc2)cnc2cc(Cl)ccc12 [Compound 6] | 1.6 | 2.3 | 3.3 | –
6 | CC(C)(C)NCCCNc1c(-c2ccc(-c3ccccc3)cc2)cnc2cc(Cl)ccc12 [Compound 7] | 1.4 | 0.9 | 2.9 | –
7 | CC(C)(C)NCCCNc1c(-c2ccc(-c3ccc(OC(F)(F)F)cc3)cc2)cnc2cc(Cl)ccc12 [Compound 8] | – | – | – | IC50 (P. falciparum strain 7G8; [11]): 8.3 nM; IC50 (P. falciparum strain D6; [12]): 5.3 nM; IC50 (P. falciparum strain Dd2; [13]): 5.9 nM
8 | CC(C)(C)NCCCNc1c(-c2ccc(F)cc2)cnc2cc(Cl)ccc12 [Compound 10] | – | – | – | IC50 (P. falciparum strain 7G8; [11]): 32.8 nM; IC50 (P. falciparum strain D6; [12]): 13.1 nM; IC50 (P. falciparum strain Dd2; [13]): 11.7 nM
9 | CC(C)(C)NCCCNc1c(-c2ccc(N3CCOCC3)cc2)cnc2cc(Cl)ccc12 [Compound 14] | 8.2 | 4.4 | 6.7 | –
10 | CC(C)(C)NCCCNc1c(-c2ccc(CN3CCOCC3)cc2)cnc2cc(Cl)ccc12 [Compound 15] | – | – | – | IC50 (P. falciparum strain 7G8; [11]): 0.9 nM; IC50 (P. falciparum strain D6; [12]): 0.8 nM; IC50 (P. falciparum strain Dd2; [13]): 0.9 nM
11 | CC(C)(C)NCCCNc1c(-c2ccc(Br)cc2)cnc2cc(Cl)ccc12 [Compound 16] | – | – | – | IC50 (P. falciparum strain 7G8; [11]): 2.5 nM; IC50 (P. falciparum strain D6; [12]): < 2.5 nM; IC50 (P. falciparum strain Dd2; [13]): < 2.5 nM
12 | CC(C)(C)NCCCNc1c(-c2cccc(OC(F)(F)F)c2)cnc2cc(Cl)ccc12 [Compound 18] | < 2.5 | < 2.5 | < 2.5 | –
13 | FC(F)(F)Oc1ccc(-c2cnc3cc(Cl)ccc3c2NCCC2CCCCN2)cc1 (stereo not shown) [Compound 22] | < 2.5 | 0.7 | 1.8 | –
14 | CCN(CC)CCNc1c(-c2ccc(OC(F)(F)F)cc2)cnc2cc(Cl)ccc12 [Compound 23] | 93 | 35 | 80 | –
15 | CCN(CC)CCCNc1c(-c2ccc(OC(F)(F)F)cc2)cnc2cc(Cl)ccc12 [Compound 24] | – | – | – | IC50 (P. falciparum strain 7G8; [11]): 8.5 nM; IC50 (P. falciparum strain D6; [12]): 3.4 nM; IC50 (P. falciparum strain Dd2; [13]): 4.4 nM
16 | CCN(CC)CCCC(C)Nc1c(-c2ccc(OC(F)(F)F)cc2)cnc2cc(Cl)ccc12 (stereo not shown) [Compound 25] | 11.1 | 3.5 | 7.8 | –
17 | CC(C)(C)NCCNc1c(-c2ccc(OC(F)(F)F)cc2)cnc2cc(Cl)ccc12 [Compound 26] | – | – | – | IC50 (P. falciparum strain 7G8; [11]): 4.5 nM; IC50 (P. falciparum strain D6; [12]): 0.6 nM; IC50 (P. falciparum strain Dd2; [13]): 4.9 nM
18 | CCN(CC)CCCC(C)Nc1c2ccc(Cl)cc2nc2ccc(OC)cc12 (stereo not shown) [Quinacrine, reference compound] | – | – | – | IC50 (P. falciparum strain 7G8; [8]): 9 nM; IC50 (P. falciparum strain D6; [9]): 5 nM; IC50 (P. falciparum strain Dd2; [10]): 10 nM
19 | C=C[C@H]1C[N@@]2CC[C@H]1C[C@H]2[C@H](O)c1ccnc2ccc(OC)cc12 [Quinine, reference compound] | 30 | 19 | 87 | IC50 [1, 7]: 96 nM
20 | CCN(CC)CCCC(C)Nc1c(C)cnc2cc(Cl)ccc12 (stereo not shown) [Sontochin, reference compound] | – | – | – | IC50 (P. falciparum strain 7G8; [11]): 20 nM; IC50 (P. falciparum strains; range over Table 1 strains, read-out: IC50 values against the drug resistant strains of P. falciparum (range)): 8 to 20 nM; IC50 (P. falciparum strain D6; [12]): 8 nM; IC50 (P. falciparum strain Dd2; [13]): 19 nM; IC50 ([1]; P. falciparum Tm90.C2B, multidrug and atovaquone resistant, unit inferred, read-out: IC50 value against strain Tm90.C2B): 19.1 nM

Now from value to molecule, other results behind:

Row | IC50 (P. falciparum strain 7G8; [4]) [nM] | IC50 (P. falciparum strain D6; [5]) [nM] | IC50 (P. falciparum strain Dd2; [6]) [nM] | Structure (SMILES) | also measured
21 | 1.3 | 0.9 | 1.4 | CC(C)(C)NCCCNc1c(-c2ccc(OC(F)(F)F)cc2)cnc2cc(Cl)ccc12 [Compound 1, N1-(tert-butyl)-N3-(7-chloro-3-(4-(trifluoromethoxy)phenyl)-quinolin-4-yl)-propane-1,3-diamine] | Affinity for free heme [2]: strong affinity for free heme; IC50 (P. falciparum strains; Plasmodium falciparum, average over strains, read-out: Avg IC50 values vs P. falciparum strains): 1.2 nM; IC50 (hERG potassium channel): 4000 nM; IC50 [3]: 4980 nM; ED50 (P. yoelii; gavage daily Days 1-4, parasitemia Day 5, drugs given as salts): 0.25 mg/kg/day; Cure of animals (P. yoelii; at 16 and 64 mg/kg/day): cured all animals; IC50 [1, 7]: 1.3 nM
22 | 5.8 | 8 | 15 | CC(C)(C)NCCCNc1c(-c2ccc(Cl)cc2)cnc2cc(Cl)ccc12 [Compound 2] | –
23 | 9.7 | 4.8 | 11.9 | CC(C)(C)NCCCNc1c(-c2ccc(C(F)(F)F)cc2)cnc2cc(Cl)ccc12 [Compound 4] | –
24 | 20.6 | 9.5 | 11.7 | COc1ccc(-c2cnc3cc(Cl)ccc3c2NCCCNC(C)(C)C)cc1 [Compound 11] | –
25 | 11.7 | 5.1 | 7 | CN(C)c1ccc(-c2cnc3cc(Cl)ccc3c2NCCCNC(C)(C)C)cc1 [Compound 12] | –
26 | 5.6 | 2.4 | 4.9 | CC(C)(C)NCCCNc1c(-c2ccc(OC(F)F)cc2)cnc2cc(Cl)ccc12 [Compound 13] | –
27 | 26.3 | 13.5 | 21.8 | CC(C)(C)NCCCNc1c(-c2ccc(C#N)cc2)cnc2cc(Cl)ccc12 [Compound 17] | –
